Assay results reported in patent US6835747B1, “Ft-0554a substances and process for the preparation thereof” (The Kitasato Institute, priority 2003, dated 2004).
Entries after “also recorded” stand apart in the source; their conditions may differ.

Tests used:
NADH-fumarate reductase = NADH-fumarate reductase (Ascaris suum, UniProt P24875); assay: NADH-fumarate reductase inhibitory activity, Ascaris suum mitochondrial fraction, NADH absorption at 340 nm; assay type: biochemical
Description: NADH-fumarate reductase inhibitory activity of FT-0554A substance of the present invention is explained as follows.
Muscles of Ascaris suum were homogenized in 120 mM sodium phosphate solution (pH 7.0) and centrifuged at 3000×g for 10 minutes to collect the supernatant solution. The supernatant was further centrifuged at 10000×g for 20 minutes to collect the precipitate. The precipitate was suspended in 120 mM sodium phosphate solution (pH 7.0) to obtain mitochondorial fraction.
After 10 μl of test sample dissolved in 50% dimethyl sulfoxide solution was added into 96 wells microplate, 80 μl of 120 mM sodium phosphate solution (pH 7.0) containing 0.35 mM NADH, 7.2 mM disodium fumarate and 18 mg/ml bovine serum albumin was added thereto, and pre-incubated in the microplate reader ELX808 (Bio-Teck Industries Co.) at 37° C. for 5 minutes. Mithochondrial fraction of Ascaris suum 10 μl (protein content 0.3 mg) was added therein and incubated at 37° C. for 10 minutes. Absorption of NADH at 340 nm was measured every 15 seconds.
As a result of quantitative measurement of NADH-fumarate reductase activity shown by decrease in the slope of absorbancy at 340 nm, 50% inhibition of NADH-fumarate reductase activity were obtained at 0.4 μM of FT-0554A substance. Consequently, FT-0554A substance can be expected to use as drug for treatment or prevention of helminthiasis.

Solubility in solvent = assay type: physicochemical

For CCC(C)/C=C/C=C(\C)CC(C)/C=C/C=C/C1OC(=O)C(O)C2OC12C (stereo not shown) [FT-0554 substance, reference compound], the “NADH-fumarate reductase inhibitory activity (in words)” value (NADH-fumarate reductase) was “had NADH-fumarate reductase inhibitory activity”.

With CCC(C)/C=C/C=C(\C)CC(C)/C=C/C=C/C(O)C1(C)C=C(O)C(=O)O1 (stereo not shown) [FT-0554A substance] the “NADH-fumarate reductase inhibitory activity (in words)” value (NADH-fumarate reductase) was “equivalent level of inhibitory activity”, the Solubility in solvent (Solubility in solvent; chloroform and ethyl acetate) was “soluble” and the Solubility in solvent (Solubility in solvent; water and n-hexane) was “insoluble; also recorded: hardly soluble”.
